Measured values: PMC8508960, “Ruthenium Half-Sandwich Type Complexes with Bidentate Monosaccharide Ligands Show Antineoplastic Activity in Ovarian Cancer Cell Models through Reactive Oxygen Species Production” (International Journal of Molecular Sciences, 2021)
“And” between values parts separate entries of the source, which are not always exact repeats. Equal values may be shown once. “Also recorded” adds a separate entry of the source.

Experiments:
[1] = tested on: A2780 human ovarian carcinoma cells; experiment: SRB proliferation assay (48 h) on A2780 cells; format: cell-based; conditions: for A2780 Hill Slope / IC50: SRB, nonlinear regression, N/A = could not be calculated/had no effect; for cytostatic activity in long-term SRB assay (in words): A2780 cells, 100–0.0017 µM
Experimental: (§1) Cells were cultured under standard cell culture conditions, 37 °C, 5% CO2, humidified atmosphere. A2780 cells were cultured in RMPI 1640 medium supplemented with 10% fetal calf serum, 2 mM glutamine, and 1% penicillin–streptomycin (Sigma-Aldrich). ID8 cells were cultured in high-glucose DMEM (4.5 g/L glucose) supplemented with 4% fetal calf serum, 2 mM glutamine, 1% penicillin–streptomycin (Sigma-Aldrich), and 1% ITS supplement (Sigma-Aldrich I3146). U251 cells were maintained in MEM (Sigma-Aldrich), 10% fetal bovine serum (Sigma-Aldrich), 1% penicillin/streptomycin (Invitrogene), and 2 mM glutamine. MCF7 cells were maintained in MEM (Sigma-Aldrich), 10% fetal bovine serum (Sigma-Aldrich), 1% penicillin/streptomycin (Invitrogen, Waltham, MA, USA), and 2 mM glutamine. Capan2 cells were maintained in MEM (Sigma-Aldrich), 10% fetal bovine serum (Sigma-Aldrich), 1% penicillin/streptomycin (Invitrogen), and 2 mM glutamine. Human primary dermal fibroblasts were cultured in low-glucose DMEM (1 g/L glucose) supplemented with 20% fetal calf serum, 2 mM glutamine, and 1% penicillin–streptomycin (Sigma-Aldrich).
(§2) The SRB accumulation assay assesses protein content in a sample, and it was used to assess cell proliferation. The SRB accumulation assay was performed similarly to [68]. Cells were seeded in 96-well plates. The next day, cells were treated with the compounds for 48 h in the concentrations indicated in a cell incubator. At the end of treatment, cells were fixed with 10% trichloroacetic acid (TCA). Fixed cells were stained with SRB (0.4% m/v dissolved in 1% acetic acid) for 60 min. Fixed cells were washed in 1% acetic acid three times; acetic acid was removed, and cells were left to dry. Protein-bound SRB was released by adding 100 µL of 10 mM Tris base. Plates were measured in a plate photometer (Thermo Scientific Multiscan GO spectrophotometer, Waltham, MA, USA) at 540 nm. On each plate, wells were designed to contain untreated cells. In calculations, the readings for these wells were considered as 1, and all readings were expressed relative to these values.
(§3) Statistical analysis was performed using Graphpad Prism version 8.0.1. Values were tested for normal distribution using the D’Agostino and Pearson normality test. When necessary, values were log-normalized or were normalized using the Box–Cox normalization method, as indicated in the figure captions. Nonlinear regression was performed using the built-in “[Inhibitor] vs. response—variable slope (four parameters), least square fit” utility of Graphpad that yielded IC50 and Hill slope values.

[2] = tested on: ID8 cells; experiment: SRB proliferation assay (48 h) on ID8 cells; format: cell-based; conditions: for IC50 / ID8 Hill Slope: SRB, nonlinear regression, N/A = could not be calculated/had no effect; for cytostatic activity in long-term SRB assay (in words): ID8 cells
Experimental: as §1, §2, §3

[3] = tested on: human primary skin fibroblasts; experiment: SRB proliferation assay (48 h) on primary fibroblasts; format: cell-based
Experimental: as §1, §2, §3

[4] = tested on: A2780 human ovarian carcinoma cells; experiment: MTT reduction assay (4 h, rapid toxicity) on A2780 cells; format: cell-based
Experimental: as §1
The MTT reduction assay assesses the activity of mitochondrial complex I, and it was used to assess rapid toxicity. The MTT reduction assay was performed similarly to [67]. Cells were seeded in 96-well plates. The next day, cells were treated with the compounds for 4 h in the concentrations indicated in a cell incubator. At the end of treatment, MTT was added in 0.5 mg/mL final concentration, and cells were incubated at 37 °C in a cell incubator. Then, culture media was removed, the reduced MTT dye was resolved in dimethyl sulfoxide (DMSO), and plates were measured in a plate photometer (Thermo Scientific Multiscan GO spectrophotometer, Waltham, MA, USA) at 540 nm. On each plate, wells were designed to contain untreated/vehicle-treated cells. In calculations, the readings for these wells were considered as 1, and all readings were expressed relative to these values.

[5] = tested on: A2780 cells; experiment: SRB assay on A2780 cells with or without 3 µM rucaparib; format: cell-based, human; conditions: 48 h, 3 µM
Experimental: as §2, §3

[6] = SRB, nonlinear regression, N/A = could not be calculated/had no effect

SMILES: N.N.[Cl][Pt][Cl] [Cisplatin, cisplatin, reference compound]
- A2780 Hill Slope [1]: 1.20
- IC50 [1]: 1.21 µM
- IC50 [2]: 10.8 µM
- ID8 Hill Slope [2]: 0.99
- Fibroblast Hill Slope [3, 6]: 1.53
- IC50 ([3]; SRB, nonlinear regression, N/A = could not be calculated/had no effect, read-out: Fibroblast IC50): 11.9 µM
- effect in SRB assay above 10 µM ([3]; primary human fibroblasts, above 10 µM): cytostatic

SMILES: O=C1[O][Pt]2([NH][C@@H]3CCCC[C@H]3[NH]2)[O]C1=O [Oxaliplatin, oxaliplatin, reference compound]
- A2780 Hill Slope [1]: 1.27
- IC50 [1]: 0.12 µM
- IC50 [2]: 4.59 µM
- ID8 Hill Slope [2]: 1.58
- Fibroblast Hill Slope [3, 6]: 0.37
- effect in long-term SRB assay (in words) ([3]; primary human fibroblasts): no effect

SMILES: O=C(OC[C@H]1O[C@@H](c2nnc(-c3ccccn3)o2)[C@H](OC(=O)c2ccccc2)[C@@H](OC(=O)c2ccccc2)[C@@H]1OC(=O)c1ccccc1)c1ccccc1 [Complex L-4, 2-(2′,3′,4′,6′-Tetra-O-benzoyl-β-D-glucopyranosyl)-5-(pyridin-2-yl)-1,3,4-oxadiazole]
- cytostatic activity in long-term SRB assay (in words) [1]: no biological activity; also recorded: none of the corresponding ligands (L-2a, L-4, L-6, and L-8) had cytostatic properties
- cytostatic activity in long-term SRB assay (in words) [2]: none of the corresponding ligands (L-2a, L-4, L-6, and L-8) had cytostatic properties
- effect in long-term SRB assay (in words) ([3]; primary human fibroblasts): no effect
- effect in short-term MTT assay, rapid toxicity (in words) [4]: no biological activity

SMILES: Cc1ccc(C(C)C)cc1.F[P-](F)(F)(F)(F)F.[Cl][Ru+].c1ccc(-c2nnc(-c3ccccn3)o2)cc1 [Ru-14]
- cytostatic activity in long-term SRB assay (in words) [1]: no cytostatic activity; also recorded: fully abrogated it
- A2780 Hill Slope [1]: 0.77

SMILES: Cc1ccc(C(C)C)cc1.F[P-](F)(F)(F)(F)F.[Cl][Ru+].c1ccc(-n2cc(-c3ccccn3)nn2)cc1 [Ru-13]
- cytostatic activity in long-term SRB assay (in words) [1]: lowered the cytostatic capacity
- A2780 Hill Slope [1]: 1.5 and 1.57
- IC50 [1]: 12 µM

SMILES: CC(=O)OCC1OC(c2n[n+]3c(o2)-c2cccc[n+]2[Ru-]3[Cl])C(OC(C)=O)C(OC(C)=O)C1OC(C)=O.Cc1ccc(C(C)C)cc1.F[P-](F)(F)(F)(F)F (mixture of isomers) [Ru-5]
- cytostatic activity in long-term SRB assay (in words) [1]: abrogated the inhibitory activity

SMILES: O=C(OC[C@H]1O[C@@H](n2cc(-c3ccccn3)nn2)[C@H](OC(=O)c2ccccc2)[C@@H](OC(=O)c2ccccc2)[C@@H]1OC(=O)c1ccccc1)c1ccccc1 [Complex L-2a, 1-(2′,3′,4′,6′-Tetra-O-benzoyl-β-D-glucopyranosyl)-4-(pyridin-2-yl)-1,2,3-triazole]
- cytostatic activity in long-term SRB assay (in words) [1]: no biological activity; also recorded: none of the corresponding ligands (L-2a, L-4, L-6, and L-8) had cytostatic properties
- cytostatic activity in long-term SRB assay (in words) [2]: none of the corresponding ligands (L-2a, L-4, L-6, and L-8) had cytostatic properties
- effect in long-term SRB assay (in words) ([3]; primary human fibroblasts): no effect
- effect in short-term MTT assay, rapid toxicity (in words) [4]: no biological activity

SMILES: O=C(OC[C@H]1O[C@@H](c2nnc(-c3ccccn3)o2)[C@H](OC(=O)c2ccccc2)[C@@H](OC(=O)c2ccccc2)[C@H]1OC(=O)c1ccccc1)c1ccccc1 [Complex L-8, 2-(2′,3′,4′,6′-Tetra-O-benzoyl-β-D-galactopyranosyl)-5-(pyridin-2-yl)-1,3,4-oxadiazole]
- cytostatic activity in long-term SRB assay (in words) [1]: no biological activity; also recorded: none of the corresponding ligands (L-2a, L-4, L-6, and L-8) had cytostatic properties
- cytostatic activity in long-term SRB assay (in words) [2]: none of the corresponding ligands (L-2a, L-4, L-6, and L-8) had cytostatic properties
- effect in long-term SRB assay (in words) ([3]; primary human fibroblasts): no effect
- effect in short-term MTT assay, rapid toxicity (in words) [4]: no biological activity

SMILES: c1ccc(-c2nnc(-c3ccccn3)o2)cc1 [Complex L-14, 2-phenyl-5-(pyridine-2-yl)-1,3,4-oxadiazole]
- cytostatic activity in long-term SRB assay (in words) [1]: Neither of the free ligands, L-13 or L-14, had cytostatic activity

SMILES: c1ccc(-n2cc(-c3ccccn3)nn2)cc1 [Complex L-13, 1-phenyl-4-(pyridine-2-yl)-1,2,3-triazole]
- cytostatic activity in long-term SRB assay (in words) [1]: Neither of the free ligands, L-13 or L-14, had cytostatic activity

SMILES: CNCc1ccc(-c2[nH]c3cc(F)cc4c3c2CCNC4=O)cc1 [Rucaparib, rucaparib, reference compound]
- cell proliferation (in words) [5]: reduced cell proliferation

SMILES: Cc1ccc(C(C)C)cc1.F[P-](F)(F)(F)(F)F.OCC1OC(c2nnc(-c3ccccn3)o2)C(O)C(O)C1O.[Cl][Ru+] (mixture of isomers) [Ru-10]
- cytostatic activity in long-term SRB assay (in words) [1]: abrogated the inhibitory activity

SMILES: N.N.O=C([O-])C1(C(=O)[O-])CCC1.[Pt+2] [Carboplatin, carboplatin, reference compound]
- A2780 Hill Slope [1]: 1.02
- IC50 [1]: 28 µM
- ID8 Hill Slope [2]: 0.62
- effect in long-term SRB assay (in words) ([3]; primary human fibroblasts): no effect

SMILES: O=C(O[C@@H]1[C@@H](OC(=O)c2ccccc2)[C@H](c2nnc(-c3ccccn3)o2)OC[C@H]1OC(=O)c1ccccc1)c1ccccc1 [Complex L-6, 2-(2′,3′,4′-Tri-O-benzoyl-β-D-xylopyranosyl)-5-(pyridin-2-yl)-1,3,4-oxadiazole]
- cytostatic activity in long-term SRB assay (in words) [1]: no biological activity; also recorded: none of the corresponding ligands (L-2a, L-4, L-6, and L-8) had cytostatic properties
- cytostatic activity in long-term SRB assay (in words) [2]: none of the corresponding ligands (L-2a, L-4, L-6, and L-8) had cytostatic properties
- effect in long-term SRB assay (in words) ([3]; primary human fibroblasts): no effect
- effect in short-term MTT assay, rapid toxicity (in words) [4]: no biological activity
